Test results taken from article PMC5999399 (Journal of medicinal chemistry, 2017).

Assays:
human MC5R (hMC5R) [1] = molecular target: T1, human MC5R (hMC5R) (Homo sapiens, UniProt P33032); settings: ref previously published data, cited from earlier work; for hMC5R % BE: [125I]NDP-α-MSH displacement at 10 μM
human MC3R (hMC3R) [2] = molecular target: T2, human MC3R (hMC3R) (Homo sapiens, UniProt P41968); settings: [125I]NDP-α-MSH displacement at 10 μM; ref previously published data; cited from earlier work
T2 sequence (P41968 whole entry): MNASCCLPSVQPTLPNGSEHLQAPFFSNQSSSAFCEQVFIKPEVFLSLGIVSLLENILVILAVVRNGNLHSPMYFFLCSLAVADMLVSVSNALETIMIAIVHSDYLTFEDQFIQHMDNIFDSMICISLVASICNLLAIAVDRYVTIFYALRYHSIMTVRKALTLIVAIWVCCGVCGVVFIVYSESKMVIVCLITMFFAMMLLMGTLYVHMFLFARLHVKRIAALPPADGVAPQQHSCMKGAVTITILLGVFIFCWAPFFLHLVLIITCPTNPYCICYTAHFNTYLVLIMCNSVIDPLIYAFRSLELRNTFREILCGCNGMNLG

human MC3R (hMC3R) [3] = molecular target: T2, human MC3R (hMC3R); settings: ref previously published data, cited from earlier work; for hMC3R % max effect: cAMP at 10 μM, in relation to MT-II
human MC5R (hMC5R) [4] = molecular target: T1, human MC5R (hMC5R); settings: cAMP at 10 μM, in relation to MT-II; ref previously published data; cited from earlier work
human MC4R (hMC4R) [5] = molecular target: T3, human MC4R (hMC4R) (Homo sapiens, UniProt P32245); settings: [125I]NDP-α-MSH displacement at 10 μM; ref previously published data; cited from earlier work
T3 sequence (P32245 whole entry): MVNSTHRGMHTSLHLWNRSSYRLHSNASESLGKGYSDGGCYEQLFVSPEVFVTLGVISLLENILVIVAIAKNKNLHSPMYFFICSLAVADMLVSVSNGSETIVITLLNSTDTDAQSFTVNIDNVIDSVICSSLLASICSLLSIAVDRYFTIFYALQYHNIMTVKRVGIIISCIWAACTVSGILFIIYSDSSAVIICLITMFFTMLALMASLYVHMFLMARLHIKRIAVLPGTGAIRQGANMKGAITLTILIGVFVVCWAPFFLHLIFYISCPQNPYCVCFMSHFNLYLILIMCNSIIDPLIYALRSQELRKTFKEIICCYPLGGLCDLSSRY

human MC4R (hMC4R) [6] = molecular target: T3, human MC4R (hMC4R); settings: cAMP at 10 μM, in relation to MT-II; ref previously published data; cited from earlier work
human MC1R (hMC1R) [7] = molecular target: T4, human MC1R (hMC1R) (Homo sapiens, UniProt Q01726); settings: cAMP at 10 μM, in relation to MT-II; ref previously published data; cited from earlier work
T4 sequence (Q01726 whole entry): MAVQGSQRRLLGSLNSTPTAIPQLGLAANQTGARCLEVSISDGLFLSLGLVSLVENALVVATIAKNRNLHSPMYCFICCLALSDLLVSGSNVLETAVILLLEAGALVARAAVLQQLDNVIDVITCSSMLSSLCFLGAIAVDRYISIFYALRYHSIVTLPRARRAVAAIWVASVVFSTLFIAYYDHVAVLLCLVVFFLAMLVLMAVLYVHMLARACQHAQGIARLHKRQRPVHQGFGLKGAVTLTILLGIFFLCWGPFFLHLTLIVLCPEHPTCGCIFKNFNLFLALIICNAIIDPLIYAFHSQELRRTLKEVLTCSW

human MC1R (hMC1R) [8] = molecular target: T4, human MC1R (hMC1R); settings: [125I]NDP-α-MSH displacement at 10 μM; ref previously published data; cited from earlier work
human MC1R (hMC1R) [9] = molecular target: T4, human MC1R (hMC1R); experiment: Adenylate cyclase; type: cell-based; settings: EC50 ratio

T1 sequence (P33032 whole entry): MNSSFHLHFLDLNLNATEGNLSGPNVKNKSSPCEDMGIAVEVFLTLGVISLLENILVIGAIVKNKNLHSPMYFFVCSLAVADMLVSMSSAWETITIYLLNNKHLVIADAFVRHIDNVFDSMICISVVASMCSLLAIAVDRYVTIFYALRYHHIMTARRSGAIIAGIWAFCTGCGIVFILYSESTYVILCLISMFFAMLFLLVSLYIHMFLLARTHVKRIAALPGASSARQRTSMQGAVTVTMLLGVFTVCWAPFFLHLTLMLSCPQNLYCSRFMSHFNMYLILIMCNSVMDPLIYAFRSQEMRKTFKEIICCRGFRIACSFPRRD

Row | Substance | hMC5R % BE (human MC5R (hMC5R) [1]) [%] | IC50 (human MC5R (hMC5R) [1]; read-out: hMC5R IC50, 50% specific binding) [nM] | hMC3R % BE (human MC3R (hMC3R) [2]) [%] | hMC3R % max effect (human MC3R (hMC3R) [3]) [%] | EC50 (human MC3R (hMC3R) [3]; read-out: hMC3R EC50, cAMP accumulation) [nM] | hMC5R % max effect (human MC5R (hMC5R) [4]) [%] | hMC4R % BE (human MC4R (hMC4R) [5]) [%] | hMC4R % max effect (human MC4R (hMC4R) [6]) [%] | hMC1R % max effect (human MC1R (hMC1R) [7]) [%] | hMC1R % BE (human MC1R (hMC1R) [8]) [%] | increase in potency to hMC1R compared to γ-MSH (human MC1R (hMC1R) [9]) [fold]
1 | H-Tyr-Val-Nle-Gly-His-D-Nal(2)-Arg-D-Trp-Asp-Arg-Phe-Gly-NH2 [Compound 1] | 100 | 3.5 ± 0.5 | 100 | 6 | 300 ± 6 | 6 | – | – | – | – | –
2 | Ac-Tyr^1-Val^2-Nle^3-Gly^4-His^5-D-Phe^6-Arg^7-Trp^8-Asp^9-Arg^10-Phe^11-Gly^12-NH2 [Compound 13] | 100 | – | 100 | – | – | 100 | 100 | 100 | 100 | 100 | –
3 | H-Tyr^1-Val^2-Met^3-Gly^4-His^5-Phe^6-Arg^7-Trp^8–Asp^9-Arg^10-Phe^11-Gly^12-NH2 [Compound 12] | 100 | – | 100 | – | – | – | 100 | 76 | 100 | 100 | 3
4 | Ac-Ser-Tyr-Ser-Met-Glu-His-Phe-Arg-Trp-Gly-Lys-Pro-Val-NH2 [Compound 14] | 100 | – | 100 | 100 | – | 100 | – | – | 100 | 100 | –
